# Results taken from patent publication US20140323418A1, “SELECTIVE KINASE INHIBITORS” (PORTOLA PHARMACEUTICALS, INC., priority 2011, published 2014).
# Biological target: T1, full length active recombinant SYK enzyme (Homo sapiens, UniProt P43405)
# T1 construct: full length active recombinant SYK enzyme (Millipore, Calif.); purchased Millipore
# Test: Inhibition of Syk tyrosine phosphorylation activity (LANCE TR-FRET kinase assay)
# Format: biochemical
# Conditions: 1 nM SYK, 550 nM substrate, 100 μM ATP, 1 hour room temperature
row,IC50 [nM],SMILES
1,10 to 100,"CC[C@@H](Nc1ncc(C(N)=O)c(Nc2ccc3ccncc3c2)n1)C(N)=O [Example 71, (R)-2-(1-amino-1-oxobutan-2-ylamino)-4-(isoquinolin-7-ylamino)pyrimidine-5-carboxamide]"
2,10 to 100,"NC(=O)c1cnc(N[C@@H]2CCCC[C@@H]2N)nc1Nc1ccc2ccncc2c1 [Example 73, 2-((1R,2S)-2-aminocyclohexylamino)-4-(isoquinolin-7-ylamino)pyrimidine-5-carboxamide]"
3,10 to 100,"NC(=O)c1cnc(N[C@H](CC2CC2)C(N)=O)nc1Nc1cnc2ccccc2c1 [Example 74, (R)-2-(1-amino-3-cyclopropyl-1-oxopropan-2-ylamino)-4-(quinolin-3-ylamino)pyrimidine-5-carboxamide]"
4,10 to 100,"NC(=O)c1cnc(N[C@@H]2CCCC[C@@H]2N)nc1Nc1ccc2cccnc2c1 [Example 75, 2-((1R,2S)-2-aminocyclohexylamino)-4-(quinolin-7-ylamino)pyrimidine-5-carboxamide]"
5,1 to 10,"CCn1ccc2c(Nc3nc(NC[C@@H](N)CC(F)F)ncc3C(N)=O)cccc21 [Example 76, (S)-2-(2-amino-4,4-difluorobutylamino)-4-(1-ethyl-1H-indol-4-ylamino)pyrimidine-5-carboxamide]"
6,100 to 1000,"CC(C)[C@@H](Nc1ncc(C(N)=O)c(Nc2ccc3cccnc3c2)n1)C(N)=O [Example 77, (R)-2-(1-amino-3-methyl-1-oxobutan-2-ylamino)-4-(quinolin-7-ylamino)pyrimidine-5-carboxamide]"
7,10 to 100,"Cc1cccc(Nc2nc(NC[C@@H](N)CC(F)F)ncc2C(N)=O)c1 [Example 78, (S)-4-(m-toluidino)-2-(2-amino-4,4-difluorobutylamino)pyrimidine-5-carboxamide]"
8,100 to 1000,"N#Cc1cccc(Nc2nc(NC[C@@H](N)CC(F)F)ncc2C(N)=O)c1 [Example 82, (S)-2-(2-amino-4,4-difluorobutylamino)-4-(3-cyanophenylamino)pyrimidine-5-carboxamide]"
9,100 to 1000,"Cc1ccc(Nc2nc(NC[C@@H](N)CC(F)F)ncc2C(N)=O)cc1 [Example 83, (S)-4-(p-toluidino)-2-(2-amino-4,4-difluorobutylamino)pyrimidine-5-carboxamide]"
10,1 to 10,"NC(=O)c1cnc(NC[C@@H](N)CC(F)F)nc1Nc1cccc2c1ccn2CC(F)(F)F [Example 84, (S)-2-(2-amino-4,4-difluorobutylamino)-4-(1-(2,2,2-trifluoroethyl)-1H-indol-4-ylamino)pyrimidine-5-carboxamide]"
11,1 to 10,"Cn1ccc2c(Nc3nc(NC[C@@H](N)CC(F)F)ncc3C(N)=O)cccc21 [Example 85, (S)-2-(2-amino-4,4-difluorobutylamino)-4-(1-methyl-1H-indol-4-ylamino)pyrimidine-5-carboxamide]"
12,10 to 100,"Cn1ccc2c(Nc3nc(NC[C@@H](N)CC(F)F)ncc3C(N)=O)ccc(F)c21 [Example 86, (S)-2-(2-amino-4,4-difluorobutylamino)-4-(7-fluoro-1-methyl-1H-indol-4-ylamino)pyrimidine-5-carboxamide]"
13,10 to 100,"Cc1cc2c(Nc3nc(NC[C@@H](N)CC(F)F)ncc3C(N)=O)cccc2n1C [Example 87, (S)-2-(2-amino-4,4-difluorobutylamino)-4-(1,2-dimethyl-1H-indol-4-ylamino)pyrimidine-5-carboxamide]"
14,1 to 10,"CCn1ccc2c(Nc3nc(N[C@@H](CN)C4CC4)ncc3C(N)=O)cccc21 [Example 88, (R)-2-(2-amino-1-cyclopropylethylamino)-4-(1-ethyl-1H-indol-4-ylamino)pyrimidine-5-carboxamide]"
15,10 to 100,"Cc1cccc(Nc2nc(N[C@@H](CN)CC(F)F)ncc2C(N)=O)c1 [Example 89, (R)-4-(m-toluidino)-2-(1-amino-4,4-difluorobutan-2-ylamino)pyrimidine-5-carboxamide]"
